Biological target: human APJ receptor (Homo sapiens (Human), UniProt P35414)
Experiment: [35S]GTPγS binding assay on membranes from CHO cells stably expressing human APJ receptor
Type: biochemical
Details: read-out: Activity hAPJ SPA EC50 IP
Procedure, shortened: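 Membranes from CHO cells stably expressing human APJ incubated with ligand, 0.2 nM [35S]GTPγS and WGA SPA beads in HEPES pH 7.5 with 5 mM MgCl2, 200 mM NaCl, 3 μM GDP, 90 min at RT. Nonspecific binding defined with 100 μM GTPγS; EC50 by non-linear regression.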

human APJ receptor, sequence (P35414 whole entry): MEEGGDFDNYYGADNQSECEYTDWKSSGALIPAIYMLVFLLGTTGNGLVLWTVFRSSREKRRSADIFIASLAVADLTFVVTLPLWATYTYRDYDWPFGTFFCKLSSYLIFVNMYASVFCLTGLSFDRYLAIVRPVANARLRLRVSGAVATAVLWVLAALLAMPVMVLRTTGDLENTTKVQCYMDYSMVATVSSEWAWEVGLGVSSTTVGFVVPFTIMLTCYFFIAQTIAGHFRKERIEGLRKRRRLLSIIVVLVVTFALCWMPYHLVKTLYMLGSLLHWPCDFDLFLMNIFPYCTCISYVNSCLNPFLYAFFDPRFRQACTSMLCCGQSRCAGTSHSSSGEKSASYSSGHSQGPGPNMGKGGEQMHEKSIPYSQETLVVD

| Molecule | EC50 |
| --- | --- |
| COc1cccc(OC)c1-n1c(NS(=O)(=O)[C@@H](C)[C@@H](OC(C)C)c2ncc(Cl)cn2)nnc1[C@H]1CCC(C)(C)O1 (single isomer, unassigned) [Example 413.0, (1S,2S)-1-(5-chloro-2-pyrimidinyl)-N-(4-(2,6-dimethoxyphenyl)-5-((2R)-5,5-dimethyltetrahydro-2-furanyl)-4H-1,2,4-triazol-3-yl)-1-(2-propanyloxy)-2-propanesulfonamide or (1S,2S)-1-(5-chloro-2-pyrimidinyl)-N-(4-(2,6-dimethoxyphenyl)-5-((2S)-5,5-dimethyltetrahydro-2-furanyl)-4H-1,2,4-triazol-3-yl)-1-(2-propanyloxy)-2-propanesulfonamide] | 7.4 nM |
| (1R,2S)-1-(5-chloropyrimidin-2-yl)-1-methoxy-N-(5-((2S,5S)-5-methyltetrahydrofuran-2-yl)-4-tetrahydro-2H-pyran-4-yl)-4H-1,2,4-triazol-3-yl)propane-2-sulfonamide or (1R,2S)-1-(5-chloropyrimidin-2-yl)-1-methoxy-N-(5-((2R,5R)-5-methyltetrahydrofuran-2-yl)-4-(tetrahydro-2H-pyran-4-yl)-4H-1,2,4-triazol-3-yl)propane-2-sulfonamide [Example 225.0] | 70 nM |
| COc1cccc(OC)c1-n1c(NS(=O)(=O)[C@H](C)Cc2ncc(F)cn2)nnc1[C@H]1CCOC1 [Example 6.0] | 400 nM |
| COc1cccc(OC)c1-n1c(NS(=O)(=O)[C@@H](C)[C@@H](OC(C)C)c2ncc(C)cn2)nnc1[C@H]1CCC(=O)N1C (single isomer, unassigned) [Example 417.0, (1S,2S)-N-(4-(2,6-dimethoxyphenyl)-5-((2R)-1-methyl-5-oxo-2-pyrrolidinyl)-4H-1,2,4-triazol-3-yl)-1-(5-methyl-2-pyrimidinyl)-1-(2-propanyloxy)-2-propanesulfonamide or (1S,2S)-N-(4-(2,6-dimethoxyphenyl)-5-((2S)-1-methyl-5-oxo-2-pyrrolidinyl)-4H-1,2,4-triazol-3-yl)-1-(5-methyl-2-pyrimidinyl)-1-(2-propanyloxy)-2-propanesulfonamide] | 190 nM |
| (1R,2S)-1-(5-chloro-2-pyridinyl)-N-(4-(1,3-dimethoxy-2-propanyl)-5-((2R,5R)-5-methyltetrahydro-2-furanyl)-4H-1,2,4-triazol-3-yl)-1-methoxy-2-propanesulfonamide or (1R,2S)-1-(5-chloro-2-pyridinyl)-N-(4-(1,3-dimethoxy-2-propanyl)-5-((2S,5S)-5-methyltetrahydro-2-furanyl)-4H-1,2,4-triazol-3-yl)-1-methoxy-2-propanesulfonamide [Example 381.0] | 2.1 nM |
| (2S,3R)-3-(5-chloropyrimidin-2-yl)-N-(4-(2,6-dimethoxyphenyl)-5-((R)-1,1-dioxidotetrahydrothiophen-3-yl)-4H-1,2,4-triazol-3-yl)butane-2-sulfonamide or (2S,3R)-3-(5-chloropyrimidin-2-yl)-N-(4-(2,6-dimethoxyphenyl)-5-((S)-1,1-dioxidotetrahydrothiophen-3-yl)-4H-1,2,4-triazol-3-yl)butane-2-sulfonamide [Example 190.0] | 300 nM |
| (1R,2S)-N-(5-((S)-1,4-dioxan-2-yl)-4-(1-(methoxymethyl)cyclopropyl)-4H-1,2,4-triazol-3-yl)-1-(5-chloropyrimidin-2-yl)-1-methoxypropane-2-sulfonamide or (1R,2S)-N-(5-((R)-1,4-dioxan-2-yl)-4-(1-(methoxymethyl)cyclopropyl)-4H-1,2,4-triazol-3-yl)-1-(5-chloropyrimidin-2-yl)-1-methoxypropane-2-sulfonamide [Example 341.0] | 1210 nM |
| (2S,3R)-3-(5-chloropyrimidin-2-yl)-N-(4-(4,6-dimethoxypyrimidin-5-yl)-5-((R)-5,5-dimethyltetrahydrofuran-3-yl)-4H-1,2,4-triazol-3-yl)butane-2-sulfonamide or (2S,3R)-3-(5-chloropyrimidin-2-yl)-N-(4-(4,6-dimethoxypyrimidin-5-yl)-5-((S)-5,5-dimethyltetrahydrofuran-3-yl)-4H-1,2,4-triazol-3-yl)butane-2-sulfonamide [Example 318.0] | 13 nM |
| COc1ncnc(OC)c1-n1c(NS(=O)(=O)[C@@H](C)[C@H](C)c2cnc(C)cn2)nnc1[C@H]1CCCO1 (single isomer, unassigned) [Example 104.0, (2S,3R)-N-(4-(4,6-dimethoxypyrimidin-5-yl)-5-((S)-tetrahydrofuran-2-yl)-4H-1,2,4-triazol-3-yl)-3-(5-methylpyrazin-2-yl)butane-2-sulfonamide or (2S,3R)-N-(4-(4,6-dimethoxypyrimidin-5-yl)-5-((R)-tetrahydrofuran-2-yl)-4H-1,2,4-triazol-3-yl)-3-(5-methylpyrazin-2-yl)butane-2-sulfonamide] | 330 nM |
| C[C@H](c1ncc(Cl)cn1)[C@H](C)S(=O)(=O)Nc1nnc([C@@H]2CCOC2)n1[C@H](C)c1ccon1 (single isomer, unassigned) [Example 416.0, (2S,3R)-3-(5-chloro-2-pyrimidinyl)-N-(4-((1R)-1-(1,2-oxazol-3-yl)ethyl)-5-((3S)-tetrahydro-3-furanyl)-4H-1,2,4-triazol-3-yl)-2-butanesulfonamide or (2S,3R)-3-(5-chloro-2-pyrimidinyl)-N-(4-((1S)-1-(1,2-oxazol-3-yl)ethyl)-5-((3S)-tetrahydro-3-furanyl)-4H-1,2,4-triazol-3-yl)-2-butanesulfonamide] | 190 nM |
| COc1ncnc(OC)c1-n1c(NS(=O)(=O)[C@@H](C)[C@H](C)c2ncc(Cl)cn2)nnc1[C@@H]1CCCCO1 (single isomer, unassigned) [Example 192.0, (2S,3R)-3-(5-chloropyrimidin-2-yl)-N-(4-(4,6-dimethoxypyrimidin-5-yl)-5-((S)-tetrahydro-2H-pyran-2-yl)-4H-1,2,4-triazol-3-yl)butane-2-sulfonamide or (2S,3R)-3-(5-chloropyrimidin-2-yl)-N-(4-(4,6-dimethoxypyrimidin-5-yl)-5-((R)-tetrahydro-2H-pyran-2-yl)-4H-1,2,4-triazol-3-yl)butane-2-sulfonamide] | 1 nM |
| (1S,2S)-N-(4-(1,3-dimethoxy-2-propanyl)-5-((2R,5R)-5-methyltetrahydro-2-furanyl)-4H-1,2,4-triazol-3-yl)-1-(5-methyl-2-pyrimidinyl)-1-(2-propanyloxy)-2-propanesulfonamide or (1S,2S)-N-(4-(1,3-dimethoxy-2-propanyl)-5-((2S,5S)-5-methyltetrahydro-2-furanyl)-4H-1,2,4-triazol-3-yl)-1-(5-methyl-2-pyrimidinyl)-1-(2-propanyloxy)-2-propanesulfonamide [Example 359.0] | 11 nM |
| COc1cccc(OC)c1-n1c(NS(=O)(=O)[C@@H](C)[C@@H](OC(C)C)c2ncc(C)cn2)nnc1[C@H]1CCCO1 (single isomer, unassigned) [Example 98.0, (1S,2S)-N-(4-(2,6-dimethoxyphenyl)-5-((S)-tetrahydrofuran-2-yl)-4H-1,2,4-triazol-3-yl)-1-isopropoxy-1-(5-methylpyrimidin-2-yl)propane-2-sulfonamide or (1S,2S)-N-(4-(2,6-dimethoxyphenyl)-5-((R)-tetrahydrofuran-2-yl)-4H-1,2,4-triazol-3-yl)-1-isopropoxy-1-(5-methylpyrimidin-2-yl)propane-2-sulfonamide] | 0.78 nM |
| COc1cccc(OC)c1-n1c(NS(=O)(=O)[C@@H](C)[C@H](OC)c2ncc(C)cn2)nnc1[C@@H]1CCNC1 (mixture of isomers) [Example 45.0, (1R,2S)-N-(4-(2,6-Dimethoxyphenyl)-5-((R)-pyrrolidin-3-yl)-4H-1,2,4-triazol-3-yl)-1-methoxy-1-(5-methylpyrimidin-2-yl)propane-2-sulfonamide and (1R,2S)-N-(4-(2,6-dimethoxyphenyl)-5-((S)-pyrrolidin-3-yl)-4H-1,2,4-triazol-3-yl)-1-methoxy-1-(5-methylpyrimidin-2-yl)propane-2-sulfonamide] | 510 nM |
| COc1cccc(OC)c1-n1c(NS(=O)(=O)[C@@H](C)[C@H](OC)c2ncc(Cl)cn2)nnc1[C@H]1CCC(=O)N1 (single isomer, unassigned) [Example 398.0, (1R,2S)-1-(5-chloro-2-pyrimidinyl)-N-(4-(2,6-dimethoxyphenyl)-5-((2R)-5-oxo-2-pyrrolidinyl)-4H-1,2,4-triazol-3-yl)-1-methoxy-2-propanesulfonamide or (1R,2S)-1-(5-chloro-2-pyrimidinyl)-N-(4-(2,6-dimethoxyphenyl)-5-((2S)-5-oxo-2-pyrrolidinyl)-4H-1,2,4-triazol-3-yl)-1-methoxy-2-propanesulfonamide] | 560 nM |
| COc1cccc(OC)c1-n1c(NS(=O)(=O)[C@@H](C)[C@H](C)c2ncc(C)cn2)nnc1[C@@H]1CCO[C@@H]1C (single isomer, unassigned) [Example 123.0, (2S,3R)-N-(4-(2,6-dimethoxyphenyl)-5-((2R,3S)-2-methyltetrahydrofuran-3-yl)-4H-1,2,4-triazol-3-yl)-3-(5-methylpyrimidin-2-yl)butane-2-sulfonamide or (2S,3R)-N-(4-(2,6-dimethoxyphenyl)-5-((2S,3R)-2-methyltetrahydrofuran-3-yl)-4H-1,2,4-triazol-3-yl)-3-(5-methylpyrimidin-2-yl)butane-2-sulfonamide] | 700 nM |
| COc1ncnc(OC)c1-n1c(NS(=O)(=O)[C@@H](C)[C@H](C)c2ncc(Cl)cn2)nnc1[C@@H]1COCCO1 (single isomer, unassigned) [Example 196.0, (2S,3R)-3-(5-chloropyrimidin-2-yl)-N-(4-(4,6-dimethoxypyrimidin-5-yl)-5-((R)-1,4-dioxan-2-yl)-4H-1,2,4-triazol-3-yl)butane-2-sulfonamide or (2S,3R)-3-(5-chloropyrimidin-2-yl)-N-(4-(4,6-dimethoxypyrimidin-5-yl)-5-((S)-1,4-dioxan-2-yl)-4H-1,2,4-triazol-3-yl)butane-2-sulfonamide] | 130 nM |
